# Biological target: T1, MAPK3 (ERK1) (Homo sapiens, UniProt P27361)
# T1 construct: purchased Thermo Fisher Scientific (Life Technologies) SelectScreen
# Experiment: SelectScreen Z'LYTE
# Format: biochemical
# How it was run: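 Percent values come from Thermo SelectScreen profiling of NU5455, combining activity and binding assays. CSF1R was run in Z'LYTE format at Km app ATP, and CAMK1 in Adapta format with ATP listed at 10.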
# T1 sequence (P27361 whole entry): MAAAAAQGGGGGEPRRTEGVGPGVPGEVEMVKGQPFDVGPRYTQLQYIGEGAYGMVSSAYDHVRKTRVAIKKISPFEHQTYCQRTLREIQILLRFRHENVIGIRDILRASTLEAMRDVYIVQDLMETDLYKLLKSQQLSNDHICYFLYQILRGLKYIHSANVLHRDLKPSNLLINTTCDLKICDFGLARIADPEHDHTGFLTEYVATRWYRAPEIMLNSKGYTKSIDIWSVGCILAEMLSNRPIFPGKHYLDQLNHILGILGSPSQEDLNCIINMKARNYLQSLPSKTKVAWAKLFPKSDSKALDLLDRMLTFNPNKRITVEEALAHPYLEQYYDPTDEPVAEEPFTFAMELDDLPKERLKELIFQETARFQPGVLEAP
compound,measurement,value
CN(C(=O)CN1CCOCC1)c1ccc2sc3c(-c4cccc5c(=O)cc(N6CC7CCC(C6)O7)oc45)cccc3c2c1 [NU5455],inhibition at 1 µM,9.5%

# Reference: paper PMC6934184, “Selective DNA-PKcs inhibition extends the therapeutic index of localized radiotherapy and chemotherapy” (The Journal of Clinical Investigation, 2019)
